Laboratory results: US7510833B2, “Method for examining obesity or leanness” (Banyu Pharmaceutical Co., Ltd., priority 2003, dated 2009)

Legend:
Type in all cases: in vivo, mouse
[1] = system: leptin; test: Expression of leptin in white adipocytes of mice i.c.v. administered with NPY Y5 agonist; details: 5 μg/day i.c.v., non-treated C57BL/6N set to 1
[2] = system: MCP-1; test: Expression of MCP-1 in white adipocytes of mice i.c.v. administered with NPY Y5 agonist (TaqMan PCR); details: 5 μg/day i.c.v., non-treated C57BL/6N set to 1
Description: Model mice displaying obesity were constructed by the administration of NPY Y5 agonist in the manner described below.
Male mice (9-12 weeks old) (C57BL/6J, CLEA, Inc.) were bred at one animal per plastic cage under the conditions of: room temperature 23±2° C.; and humidity 55±15%. The light-dark cycle during breeding period was set to be 12 hours and the light was put on at 7 a.m. and turned off at 7 p.m. Mice were allowed access to ad lib feed (CE-2 (protein: 25.4 wt. %; carbohydrate: 50.3 wt. %; lipid: 4.4 wt. %), CLEA, Inc.) and water.
Mice were anesthetized with 80 mg/kg of sodium pentobarbital (Dinabott Inc.) and were locally implanted with sterilized 28-gage brain fusion cannulas (Alzet) at their right cerebral ventricles. The cannula was fixed vertically relative to the cranical bone at the position 0.4 mm behind and 0.8 mm side of the bregma and 2 mm deep. The cannula was fixed to the ventricle with dental cement. The cannula was connected to an osmotic pump (model no. 2002 manufactured by Alzet) filled with 10 mM phosphate buffer containing 0.05% bovine serum albumin via a polyvinylchloride tube. […]
The quantitative analysis of the expression amount of MCP-1 was performed by TaqMan PCR, using cDNA obtained from the white adipocytes according to RT-PCR. […]

[3] = system: CD11b positive blood cells (monocytes/macrophages); test: Expression analysis of CD11b by flow cytometry in mice administered with MCP-1; details: subcutaneous infusion by osmotic pump, 10 ng/0.5 μl/hr over 2 weeks; versus saline-administered control mice; FIG. 10(d)-(f)
Description: The analysis using flow cytometry was performed to study how the count of CD11b, which was a surface antigen of macrophages, or blood monocytes would vary upon administration of MCP-1.
Mice were first subcutaneously infused with. MCP-1, using an osmotic pump, at the rate of 10 ng/0.5 μl/hr over 2 weeks. Next, blood was collected from the tail veins of the control mice (C57BL/6), the DIO mice and the MCP-1 treated mice, respectively, using a heparinized capillary. After blood cells were collected from the blood by centrifugation at 300×g for 5 minutes, they were incubated with the FITC-labeled anti-mouse CD11b antibody (BD Biosciences) at room temperature for 15 minutes. The samples were incubated with the IgG2b isotype to serve as a non-specific binding control. After washing these cells with PBS, erythrocytes were lyzed with a lysis buffer at room temperature for 5 minutes. After washing the cells with PBS, the cells were suspended in PBS containing 0.5% formaldehyde. Flow cytometry was performed on this suspension, using an EPCIS Elite Flow Cytometer (Beckman Coulter, Inc.), to identify monocytes. Here, the analysis by flow cytometry was carried out by determining the population of monocytes/macrophages in the whole blood cells. In the flow cytometry 40,000 cells per each sample were analyzed with the fluorescence and scattered light as indices. […]

## D-Try^34 NPY [Y5 agonist]
[1]; Y5 agonist FF (ad lib fed)
  Expression amount of leptin: 3.53
[1]; Y5 agonist PF (pair feeding)
  Expression amount of leptin: 1.77
[2]; Y5 agonist FF (ad lib fed)
  Expression amount of MCP-1: 7.67
[2]; Y5 agonist PF (pair feeding)
  Expression amount of MCP-1: 5.16

## MCP-1: monocyte chemotaxis factor protein of the CC chemokine subfamily, subcutaneously infused into mice
[3]
  CD11b positive blood cell count: increases
